Measurements from the supplement of paper PMC11208160.

Experiment: recombinant UMI read abundance after kanamycin selection (control-corrected) (log10(CPM+1)); higher = more efficient recombination; extreme values may be limits of the assay; sequences stand for … in AGTGCAGAGAAAATCGGCCAGTTTTCTCTGCCTGCAGTCCGCATGCCGTGGGACCCCTTGGGTTCTAACCTGTTGCCTAGATTTATGCAGCGGACTGCCTTTCTCCCAAAGTGATAAACCGG…AGGTTGGTTTCACT; site = the 11-nt donor
Method in brief: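 In Escherichia coli, a pool of donor and donor-binding-loop pairs, each with a 12-nt UMI, was tested for the IS621 bridge recombinase. Plating was on IPTG (0.07 mM) plus kanamycin, or without selection, in two replicates. Recombinant UMIs were amplified by PCR across the donor–target junction and sequenced, and counts were reported as log10(CPM+1) after averaging and control-derived scaling.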
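Note: IS621 bridge recombinase in Escherichia coli cells against a fixed T5 target plasmid.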

Sequence: GTGGCACCATGGACCGGTTTTCCCGGTAATCCGTATTTGAG (site GTGGCACCTCT)
- recombinant UMI read abundance (log10): 0.0198

Sequence: GTGGCACCATGGACCGGTTTTCCCGGTAATCCGTATTTGCA (site GAGGCACCTTG)
- recombinant UMI read abundance (log10): 0

Sequence: GTGGCACCATGGACCGGTTTTCCCGGTAATCCGTATTTGCA (site GCGGCACCTTG)
- recombinant UMI read abundance (log10): 0

Sequence: GTGGCACCATGGACCGGTTTTCCCGGTAATCCGTATTTGCA (site GGGGCACCTTG)
- recombinant UMI read abundance (log10): 0

Sequence: GTGGCACCATGGACCGGTTTTCCCGGTAATCCGTATTTGCA (site GTGGCACCTTG)
- recombinant UMI read abundance (log10): 0

Sequence: GTGGCGGCATGGACCGGTTTTCCCGGTAATCCGTATTTGTG (site GTGGAGGCTCA)
- recombinant UMI read abundance (log10): 0.154

Sequence: GTGGCGGCATGGACCGGTTTTCCCGGTAATCCGTATTTGTG (site GTGGCGGCTCA)
- recombinant UMI read abundance (log10): 0.696

Sequence: GTGGCGGCATGGACCGGTTTTCCCGGTAATCCGTATTTGTG (site GTGGGGGCTCA)
- recombinant UMI read abundance (log10): 0.0119

Sequence: GTGGCGGCATGGACCGGTTTTCCCGGTAATCCGTATTTGTG (site GTGGTGGCTCA)
- recombinant UMI read abundance (log10): 0.00615

Sequence: GTGGCTGCATGGACCGGTTTTCCCGGTAATCCGTATTTGAT (site GTGGCTGCTAT)
- recombinant UMI read abundance (log10): 2.18

Sequence: GTGTAGGCATGGACCGGTTTTCCCGGTAATCCGTATTTGGC (site ATGTAGGCTGC)
- recombinant UMI read abundance (log10): 1.98

Sequence: GTGTAGGCATGGACCGGTTTTCCCGGTAATCCGTATTTGGC (site CTGTAGGCTGC)
- recombinant UMI read abundance (log10): 1.99

Sequence: GTGTAGGCATGGACCGGTTTTCCCGGTAATCCGTATTTGGC (site GTGTAGGCTGC)
- recombinant UMI read abundance (log10): 2.67

Sequence: GTGTAGGCATGGACCGGTTTTCCCGGTAATCCGTATTTGGC (site TTGTAGGCTGC)
- recombinant UMI read abundance (log10): 2.28

Sequence: GTGTAGGCATGGACCGGTTTTCCCGGTAATCCGTATTTGTG (site GTGAAGGCTCA)
- recombinant UMI read abundance (log10): 0.891

Sequence: GTGTAGGCATGGACCGGTTTTCCCGGTAATCCGTATTTGTG (site GTGCAGGCTCA)
- recombinant UMI read abundance (log10): 1.36

Sequence: GTGTAGGCATGGACCGGTTTTCCCGGTAATCCGTATTTGTG (site GTGGAGGCTCA)
- recombinant UMI read abundance (log10): 0.00345

Sequence: GTGTAGGCATGGACCGGTTTTCCCGGTAATCCGTATTTGTG (site GTGTAGGCTCA)
- recombinant UMI read abundance (log10): 1.75

Sequence: GTGTTTCCATGGACCGGTTTTCCCGGTAATCCGTATTTGTG (site GTGTTTCCTCA)
- recombinant UMI read abundance (log10): 0.368

Sequence: GTTAGAGCATGGACCGGTTTTCCCGGTAATCCGTATTTGCA (site GTTAGAGCTTG)
- recombinant UMI read abundance (log10): 3.02

Sequence: GTTAGAGCATGGACCGGTTTTCCCGGTAATCCGTATTTGCA (site GTTCGAGCTTG)
- recombinant UMI read abundance (log10): 1.01

Sequence: GTTAGAGCATGGACCGGTTTTCCCGGTAATCCGTATTTGCA (site GTTGGAGCTTG)
- recombinant UMI read abundance (log10): 1.6

Sequence: GTTAGAGCATGGACCGGTTTTCCCGGTAATCCGTATTTGCA (site GTTTGAGCTTG)
- recombinant UMI read abundance (log10): 1.08

Sequence: GTTAGAGCATGGACCGGTTTTCCCGGTAATCCGTATTTGGG (site GTTAGAGCTCC)
- recombinant UMI read abundance (log10): 0.089

Sequence: GTTAGCACATGGACCGGTTTTCCCGGTAATCCGTATTTGGC (site GTTAGAACTGC)
- recombinant UMI read abundance (log10): 0

Sequence: GTTAGCACATGGACCGGTTTTCCCGGTAATCCGTATTTGGC (site GTTAGCACTGC)
- recombinant UMI read abundance (log10): 2.11

Sequence: GTTAGCACATGGACCGGTTTTCCCGGTAATCCGTATTTGGC (site GTTAGGACTGC)
- recombinant UMI read abundance (log10): 0.0382

Sequence: GTTAGCACATGGACCGGTTTTCCCGGTAATCCGTATTTGGC (site GTTAGTACTGC)
- recombinant UMI read abundance (log10): 0

Sequence: GTTAGTCCATGGACCGGTTTTCCCGGTAATCCGTATTTGAA (site GTTAGTCCTTT)
- recombinant UMI read abundance (log10): 0.171

Sequence: GTTCAAGCATGGACCGGTTTTCCCGGTAATCCGTATTTGTC (site GTTCAAGCTGA)
- recombinant UMI read abundance (log10): 1.84

Sequence: GTTCATGCATGGACCGGTTTTCCCGGTAATCCGTATTTGGT (site GTACATGCTAC)
- recombinant UMI read abundance (log10): 0.216

Sequence: GTTCATGCATGGACCGGTTTTCCCGGTAATCCGTATTTGGT (site GTCCATGCTAC)
- recombinant UMI read abundance (log10): 0.258

Sequence: GTTCATGCATGGACCGGTTTTCCCGGTAATCCGTATTTGGT (site GTGCATGCTAC)
- recombinant UMI read abundance (log10): 0.477

Sequence: GTTCATGCATGGACCGGTTTTCCCGGTAATCCGTATTTGGT (site GTTCATGCTAC)
- recombinant UMI read abundance (log10): 0.717

Sequence: GTTCCCTCATGGACCGGTTTTCCCGGTAATCCGTATTTGTA (site GTTCCCTCTTA)
- recombinant UMI read abundance (log10): 2.5

Sequence: GTTCCGACATGGACCGGTTTTCCCGGTAATCCGTATTTGTG (site GTTCCGACTCA)
- recombinant UMI read abundance (log10): 0.0473

Sequence: GTTCCTTCATGGACCGGTTTTCCCGGTAATCCGTATTTGAC (site GTTCCTTCTGT)
- recombinant UMI read abundance (log10): 0.671

Sequence: GTTCGAACATGGACCGGTTTTCCCGGTAATCCGTATTTGGT (site GTTCGAACTAC)
- recombinant UMI read abundance (log10): 0.225

Sequence: GTTCGAGCATGGACCGGTTTTCCCGGTAATCCGTATTTGCG (site GTTCGAGCTAG)
- recombinant UMI read abundance (log10): 0

Sequence: GTTCGAGCATGGACCGGTTTTCCCGGTAATCCGTATTTGCG (site GTTCGAGCTCG)
- recombinant UMI read abundance (log10): 1.39

Sequence: GTTCGAGCATGGACCGGTTTTCCCGGTAATCCGTATTTGCG (site GTTCGAGCTGG)
- recombinant UMI read abundance (log10): 0.838

Sequence: GTTCGAGCATGGACCGGTTTTCCCGGTAATCCGTATTTGCG (site GTTCGAGCTTG)
- recombinant UMI read abundance (log10): 1.23

Sequence: GTTCGAGCATGGACCGGTTTTCCCGGTAATCCGTATTTGTA (site GTTCGAGCTTA)
- recombinant UMI read abundance (log10): 1.9

Sequence: GTTCGAGCATGGACCGGTTTTCCCGGTAATCCGTATTTGTA (site GTTCGAGCTTC)
- recombinant UMI read abundance (log10): 0.014

Sequence: GTTCGAGCATGGACCGGTTTTCCCGGTAATCCGTATTTGTA (site GTTCGAGCTTG)
- recombinant UMI read abundance (log10): 0.543

Sequence: GTTCGAGCATGGACCGGTTTTCCCGGTAATCCGTATTTGTA (site GTTCGAGCTTT)
- recombinant UMI read abundance (log10): 0.569

Sequence: GTTCGGACATGGACCGGTTTTCCCGGTAATCCGTATTTGTG (site GTTCGGACTCA)
- recombinant UMI read abundance (log10): 0.706

Sequence: GTTCTACCATGGACCGGTTTTCCCGGTAATCCGTATTTGCC (site GTTCTACCTGG)
- recombinant UMI read abundance (log10): 0

Sequence: GTTCTAGCATGGACCGGTTTTCCCGGTAATCCGTATTTGCA (site GTTCAAGCTTG)
- recombinant UMI read abundance (log10): 0

Sequence: GTTCTAGCATGGACCGGTTTTCCCGGTAATCCGTATTTGCA (site GTTCCAGCTTG)
- recombinant UMI read abundance (log10): 0.0113

Sequence: GTTCTAGCATGGACCGGTTTTCCCGGTAATCCGTATTTGCA (site GTTCGAGCTTG)
- recombinant UMI read abundance (log10): 0

Sequence: GTTCTAGCATGGACCGGTTTTCCCGGTAATCCGTATTTGCA (site GTTCTAGCTTG)
- recombinant UMI read abundance (log10): 0.902

Sequence: GTTCTCTCATGGACCGGTTTTCCCGGTAATCCGTATTTGTA (site ATTCTCTCTTA)
- recombinant UMI read abundance (log10): 0.848

Sequence: GTTCTCTCATGGACCGGTTTTCCCGGTAATCCGTATTTGTA (site CTTCTCTCTTA)
- recombinant UMI read abundance (log10): 0.989

Sequence: GTTCTCTCATGGACCGGTTTTCCCGGTAATCCGTATTTGTA (site GTTCTCTCTTA)
- recombinant UMI read abundance (log10): 1.83

Sequence: GTTCTCTCATGGACCGGTTTTCCCGGTAATCCGTATTTGTA (site TTTCTCTCTTA)
- recombinant UMI read abundance (log10): 0.822

Sequence: GTTGAAGCATGGACCGGTTTTCCCGGTAATCCGTATTTGAG (site GTTGAAGCTCT)
- recombinant UMI read abundance (log10): 1.61

Sequence: GTTGAGTCATGGACCGGTTTTCCCGGTAATCCGTATTTGAC (site GTTGAGTCTGT)
- recombinant UMI read abundance (log10): 2.71

Sequence: GTTGGCGCATGGACCGGTTTTCCCGGTAATCCGTATTTGTG (site GTTGGCGCTCA)
- recombinant UMI read abundance (log10): 0.74

Sequence: GTTGGGCCATGGACCGGTTTTCCCGGTAATCCGTATTTGAT (site GTTGGGCCTAT)
- recombinant UMI read abundance (log10): 0.00591

Sequence: GTTGTTCCATGGACCGGTTTTCCCGGTAATCCGTATTTGGT (site ATTGTTCCTAC)
- recombinant UMI read abundance (log10): 0.0121

Sequence: GTTGTTCCATGGACCGGTTTTCCCGGTAATCCGTATTTGGT (site CTTGTTCCTAC)
- recombinant UMI read abundance (log10): 0.00343

Sequence: GTTGTTCCATGGACCGGTTTTCCCGGTAATCCGTATTTGGT (site GATGTTCCTAC)
- recombinant UMI read abundance (log10): 0.0185

Sequence: GTTGTTCCATGGACCGGTTTTCCCGGTAATCCGTATTTGGT (site GCTGTTCCTAC)
- recombinant UMI read abundance (log10): 0.00506

Sequence: GTTGTTCCATGGACCGGTTTTCCCGGTAATCCGTATTTGGT (site GGTGTTCCTAC)
- recombinant UMI read abundance (log10): 0.0704

Sequence: GTTGTTCCATGGACCGGTTTTCCCGGTAATCCGTATTTGGT (site GTAGTTCCTAC)
- recombinant UMI read abundance (log10): 0.00238

Sequence: GTTGTTCCATGGACCGGTTTTCCCGGTAATCCGTATTTGGT (site GTCGTTCCTAC)
- recombinant UMI read abundance (log10): 0.005

Sequence: GTTGTTCCATGGACCGGTTTTCCCGGTAATCCGTATTTGGT (site GTGGTTCCTAC)
- recombinant UMI read abundance (log10): 0.508

Sequence: GTTGTTCCATGGACCGGTTTTCCCGGTAATCCGTATTTGGT (site GTTATTCCTAC)
- recombinant UMI read abundance (log10): 0.00427

Sequence: GTTGTTCCATGGACCGGTTTTCCCGGTAATCCGTATTTGGT (site GTTCTTCCTAC)
- recombinant UMI read abundance (log10): 0.0166

Sequence: GTTGTTCCATGGACCGGTTTTCCCGGTAATCCGTATTTGGT (site GTTGATCCTAC)
- recombinant UMI read abundance (log10): 0.00419

Sequence: GTTGTTCCATGGACCGGTTTTCCCGGTAATCCGTATTTGGT (site GTTGCTCCTAC)
- recombinant UMI read abundance (log10): 0.00968

Sequence: GTTGTTCCATGGACCGGTTTTCCCGGTAATCCGTATTTGGT (site GTTGGTCCTAC)
- recombinant UMI read abundance (log10): 0.00325

Sequence: GTTGTTCCATGGACCGGTTTTCCCGGTAATCCGTATTTGGT (site GTTGTACCTAC)
- recombinant UMI read abundance (log10): 0.00624

Sequence: GTTGTTCCATGGACCGGTTTTCCCGGTAATCCGTATTTGGT (site GTTGTCCCTAC)
- recombinant UMI read abundance (log10): 0.00355
